Blank lines part the entries; values can stand above or below the molecule they belong to.
Assays:
[1] = tested on: von Hippel-Lindau disease tumor suppressor/Epidermal growth factor receptor (Homo sapiens), P00533+P40337 [UNDEFINED MUTATION]; experiment: PROTAC activity at VHL/EGFR del19 mutant in human HCC827 cells assessed as maximal degradation incubated for 24 hrs by immunoblot analysis relative to control; format: cell-based
[2] = molecular target: T1, Protein cereblon/ALK tyrosine kinase receptor (Homo sapiens, UniProt Q9UM73+Q96SW2); experiment: PROTAC activity at CRBN/ALK in human NCI-H3122 cells assessed as induction of ALK degradation incubated for 24 hrs by Western blot analysis; format: cell-based
Target sequence in this assay (Q9UM73 whole entry, the tested form may be a part): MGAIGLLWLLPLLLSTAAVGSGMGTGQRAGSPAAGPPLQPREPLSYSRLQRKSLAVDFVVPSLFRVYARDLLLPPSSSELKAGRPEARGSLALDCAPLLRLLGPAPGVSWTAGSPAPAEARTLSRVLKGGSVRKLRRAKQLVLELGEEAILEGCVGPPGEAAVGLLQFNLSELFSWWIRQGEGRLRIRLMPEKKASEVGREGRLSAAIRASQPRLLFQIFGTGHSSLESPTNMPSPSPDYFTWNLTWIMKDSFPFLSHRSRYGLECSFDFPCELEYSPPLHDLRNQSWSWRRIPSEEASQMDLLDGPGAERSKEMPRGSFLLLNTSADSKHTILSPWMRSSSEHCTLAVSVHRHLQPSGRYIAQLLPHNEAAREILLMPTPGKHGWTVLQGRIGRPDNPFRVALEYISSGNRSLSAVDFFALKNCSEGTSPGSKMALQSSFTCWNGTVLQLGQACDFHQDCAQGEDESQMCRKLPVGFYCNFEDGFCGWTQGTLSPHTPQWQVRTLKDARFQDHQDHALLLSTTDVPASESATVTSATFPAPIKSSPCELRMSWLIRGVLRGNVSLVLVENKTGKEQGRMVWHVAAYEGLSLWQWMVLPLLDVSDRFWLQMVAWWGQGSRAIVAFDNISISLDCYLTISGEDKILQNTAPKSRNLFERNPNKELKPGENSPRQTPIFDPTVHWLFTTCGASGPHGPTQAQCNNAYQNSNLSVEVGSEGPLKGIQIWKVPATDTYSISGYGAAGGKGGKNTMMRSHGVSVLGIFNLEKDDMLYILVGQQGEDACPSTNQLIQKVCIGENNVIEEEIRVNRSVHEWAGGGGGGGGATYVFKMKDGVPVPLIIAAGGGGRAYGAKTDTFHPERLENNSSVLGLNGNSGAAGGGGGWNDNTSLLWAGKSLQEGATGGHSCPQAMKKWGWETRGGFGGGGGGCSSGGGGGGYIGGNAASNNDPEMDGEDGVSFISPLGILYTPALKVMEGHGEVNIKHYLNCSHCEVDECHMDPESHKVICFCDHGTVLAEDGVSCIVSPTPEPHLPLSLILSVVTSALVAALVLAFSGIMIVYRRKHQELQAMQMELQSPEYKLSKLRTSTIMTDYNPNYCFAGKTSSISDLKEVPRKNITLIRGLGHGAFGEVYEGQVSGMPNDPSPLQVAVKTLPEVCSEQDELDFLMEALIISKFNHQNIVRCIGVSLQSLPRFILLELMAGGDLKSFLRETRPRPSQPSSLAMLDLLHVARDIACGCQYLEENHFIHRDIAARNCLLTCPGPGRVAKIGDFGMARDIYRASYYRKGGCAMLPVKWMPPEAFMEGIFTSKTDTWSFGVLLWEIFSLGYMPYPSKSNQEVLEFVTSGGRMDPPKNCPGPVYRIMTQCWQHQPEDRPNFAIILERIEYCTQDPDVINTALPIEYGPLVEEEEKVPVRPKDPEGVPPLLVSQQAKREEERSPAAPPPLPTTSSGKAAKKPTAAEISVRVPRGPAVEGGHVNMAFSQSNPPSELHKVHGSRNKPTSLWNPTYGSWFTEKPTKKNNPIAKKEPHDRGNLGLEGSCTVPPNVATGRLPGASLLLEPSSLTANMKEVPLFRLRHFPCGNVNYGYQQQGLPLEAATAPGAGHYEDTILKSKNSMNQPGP
Target sequence in this assay (Q96SW2 whole entry, the tested form may be a part): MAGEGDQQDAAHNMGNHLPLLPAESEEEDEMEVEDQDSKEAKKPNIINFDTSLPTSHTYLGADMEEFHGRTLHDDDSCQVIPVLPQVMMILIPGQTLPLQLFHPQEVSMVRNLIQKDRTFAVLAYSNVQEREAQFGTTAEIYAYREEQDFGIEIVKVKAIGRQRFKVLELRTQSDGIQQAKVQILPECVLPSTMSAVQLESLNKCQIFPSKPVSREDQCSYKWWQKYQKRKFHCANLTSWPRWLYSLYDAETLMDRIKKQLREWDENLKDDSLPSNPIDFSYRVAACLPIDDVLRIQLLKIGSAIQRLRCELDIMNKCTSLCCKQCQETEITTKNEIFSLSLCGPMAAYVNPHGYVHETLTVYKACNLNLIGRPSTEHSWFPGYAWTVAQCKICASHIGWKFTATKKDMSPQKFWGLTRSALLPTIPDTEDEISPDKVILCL

[3] = molecular target: Von Hippel-Lindau disease tumor suppressor/Elongin B/Elongin C (Homo sapiens, UniProt P40337); experiment: Inhibition of 6xHis-tagged VHL (1 to 213 residues)/Elongin B/Elogin C (unknown origin) expressed in Escherichia coli BL21 cells by fluorescence polarization assay
[4] = molecular target: Protein cereblon/Cyclin-dependent kinase 9 (Homo sapiens) (UniProt P50750+Q96SW2); experiment: Protac activity at CRBN/CDK9 in human HeLa cells assessed as […] at 1 uM measured after 6 hrs by Western blot analysis; format: cell-based
Sequence of Protein cereblon/Cyclin-dependent kinase 9 (Homo sapiens) (P50750 whole entry, looked up): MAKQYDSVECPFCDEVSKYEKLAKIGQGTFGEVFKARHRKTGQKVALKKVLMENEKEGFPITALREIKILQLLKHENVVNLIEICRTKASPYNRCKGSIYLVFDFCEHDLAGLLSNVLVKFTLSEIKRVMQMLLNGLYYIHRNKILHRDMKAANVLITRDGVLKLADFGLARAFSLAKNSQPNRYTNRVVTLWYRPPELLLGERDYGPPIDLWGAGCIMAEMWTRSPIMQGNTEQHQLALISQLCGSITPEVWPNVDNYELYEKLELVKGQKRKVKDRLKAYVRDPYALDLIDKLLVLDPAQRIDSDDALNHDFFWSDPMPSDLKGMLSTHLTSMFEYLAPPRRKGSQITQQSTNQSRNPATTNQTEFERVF
Sequence of Protein cereblon/Cyclin-dependent kinase 9 (Homo sapiens) (Q96SW2 whole entry, looked up): as the sequence (Q96SW2 whole entry, the tested form may be a part) above

[5] = molecular target: T2, von Hippel-Lindau disease tumor suppressor/Mitogen-activated protein kinase 14 (Homo sapiens, UniProt Q16539+P40337); experiment: PROTAC activity at VHL/N-terminal His-tagged human p38alpha in MDA-MB-231 cells assessed as p38alpha degradation; format: cell-based
T2 sequence (Q16539 whole entry): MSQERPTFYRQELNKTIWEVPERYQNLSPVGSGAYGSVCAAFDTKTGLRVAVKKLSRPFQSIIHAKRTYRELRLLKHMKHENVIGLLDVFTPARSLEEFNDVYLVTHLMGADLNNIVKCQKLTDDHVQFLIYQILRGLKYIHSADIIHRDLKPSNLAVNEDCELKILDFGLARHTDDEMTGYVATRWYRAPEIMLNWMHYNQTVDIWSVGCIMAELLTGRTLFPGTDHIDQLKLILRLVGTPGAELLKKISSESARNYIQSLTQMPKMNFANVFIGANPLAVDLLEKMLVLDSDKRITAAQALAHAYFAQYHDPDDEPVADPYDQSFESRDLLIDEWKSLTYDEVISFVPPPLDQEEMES
T2 sequence (P40337 whole entry): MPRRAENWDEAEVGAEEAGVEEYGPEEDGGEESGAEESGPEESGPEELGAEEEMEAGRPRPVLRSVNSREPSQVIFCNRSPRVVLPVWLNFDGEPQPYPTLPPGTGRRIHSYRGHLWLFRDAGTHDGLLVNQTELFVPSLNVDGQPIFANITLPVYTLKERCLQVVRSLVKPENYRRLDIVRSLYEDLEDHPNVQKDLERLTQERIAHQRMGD

[6] = molecular target: T2, von Hippel-Lindau disease tumor suppressor/Mitogen-activated protein kinase 14; experiment: PROTAC activity at VHL/N-terminal His-tagged human p38alpha in T47D cells assessed as p38alpha degradation; format: cell-based
HeLa = experiment: Antiproliferative activity against human HeLa cells assessed as reduction in cell viability incubated for 24 hrs by MTT assay; format: functional, cell-based
[7] = molecular target: Protein cereblon/Androgen receptor (Homo sapiens, UniProt P10275+Q96SW2); experiment: PROTAC activity at AR/CRBN in human A549 cells assessed as induction of androgen receptor degradation measured after 1 hr by Western blot analysis; format: cell-based
Sequence of Protein cereblon/Androgen receptor (P10275 whole entry): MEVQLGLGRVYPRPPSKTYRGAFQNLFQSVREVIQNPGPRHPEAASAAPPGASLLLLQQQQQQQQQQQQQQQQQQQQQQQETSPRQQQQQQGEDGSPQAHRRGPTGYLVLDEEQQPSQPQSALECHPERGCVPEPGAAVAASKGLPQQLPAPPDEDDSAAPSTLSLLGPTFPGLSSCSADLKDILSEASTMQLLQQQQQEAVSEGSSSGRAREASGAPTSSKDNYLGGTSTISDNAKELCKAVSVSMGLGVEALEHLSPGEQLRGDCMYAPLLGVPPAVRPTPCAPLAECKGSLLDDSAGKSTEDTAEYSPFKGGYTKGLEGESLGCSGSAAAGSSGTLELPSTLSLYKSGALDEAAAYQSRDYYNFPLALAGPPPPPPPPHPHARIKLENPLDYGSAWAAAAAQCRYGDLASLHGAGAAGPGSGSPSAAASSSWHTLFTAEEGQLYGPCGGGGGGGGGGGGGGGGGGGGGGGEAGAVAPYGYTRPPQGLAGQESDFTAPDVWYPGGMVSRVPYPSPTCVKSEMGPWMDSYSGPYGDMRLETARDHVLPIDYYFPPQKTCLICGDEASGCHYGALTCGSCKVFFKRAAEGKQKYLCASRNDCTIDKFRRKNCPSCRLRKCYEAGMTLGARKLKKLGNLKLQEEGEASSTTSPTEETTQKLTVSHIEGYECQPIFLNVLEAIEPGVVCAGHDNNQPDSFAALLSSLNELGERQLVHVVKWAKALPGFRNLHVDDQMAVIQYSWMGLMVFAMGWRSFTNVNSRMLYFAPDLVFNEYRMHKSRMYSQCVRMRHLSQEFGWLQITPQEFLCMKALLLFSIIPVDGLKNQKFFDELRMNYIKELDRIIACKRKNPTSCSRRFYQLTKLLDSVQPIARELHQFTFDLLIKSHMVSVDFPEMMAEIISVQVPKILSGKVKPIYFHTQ
Sequence of Protein cereblon/Androgen receptor (Q96SW2 whole entry): as the sequence (Q96SW2 whole entry, the tested form may be a part) above

[8] = molecular target: T1, Protein cereblon/ALK tyrosine kinase receptor; experiment: PROTAC activity at CRBN/ALK in human NCI-H3122 cells assessed as induction of ALK degradation by measuring maximal degradation at […] incubated for 24 hrs by Western blot analysis; format: cell-based
[9] = molecular target: T3, Protein cereblon/Receptor-type tyrosine-protein kinase FLT3 (Homo sapiens, UniProt P36888+Q96SW2); experiment: PROTAC activity at CRBN/FLT3-ITD mutant in human MV4-11 cells assessed as protein degradation by Western blot analysis; format: cell-based
T3 sequence (P36888 whole entry, looked up, change not shown): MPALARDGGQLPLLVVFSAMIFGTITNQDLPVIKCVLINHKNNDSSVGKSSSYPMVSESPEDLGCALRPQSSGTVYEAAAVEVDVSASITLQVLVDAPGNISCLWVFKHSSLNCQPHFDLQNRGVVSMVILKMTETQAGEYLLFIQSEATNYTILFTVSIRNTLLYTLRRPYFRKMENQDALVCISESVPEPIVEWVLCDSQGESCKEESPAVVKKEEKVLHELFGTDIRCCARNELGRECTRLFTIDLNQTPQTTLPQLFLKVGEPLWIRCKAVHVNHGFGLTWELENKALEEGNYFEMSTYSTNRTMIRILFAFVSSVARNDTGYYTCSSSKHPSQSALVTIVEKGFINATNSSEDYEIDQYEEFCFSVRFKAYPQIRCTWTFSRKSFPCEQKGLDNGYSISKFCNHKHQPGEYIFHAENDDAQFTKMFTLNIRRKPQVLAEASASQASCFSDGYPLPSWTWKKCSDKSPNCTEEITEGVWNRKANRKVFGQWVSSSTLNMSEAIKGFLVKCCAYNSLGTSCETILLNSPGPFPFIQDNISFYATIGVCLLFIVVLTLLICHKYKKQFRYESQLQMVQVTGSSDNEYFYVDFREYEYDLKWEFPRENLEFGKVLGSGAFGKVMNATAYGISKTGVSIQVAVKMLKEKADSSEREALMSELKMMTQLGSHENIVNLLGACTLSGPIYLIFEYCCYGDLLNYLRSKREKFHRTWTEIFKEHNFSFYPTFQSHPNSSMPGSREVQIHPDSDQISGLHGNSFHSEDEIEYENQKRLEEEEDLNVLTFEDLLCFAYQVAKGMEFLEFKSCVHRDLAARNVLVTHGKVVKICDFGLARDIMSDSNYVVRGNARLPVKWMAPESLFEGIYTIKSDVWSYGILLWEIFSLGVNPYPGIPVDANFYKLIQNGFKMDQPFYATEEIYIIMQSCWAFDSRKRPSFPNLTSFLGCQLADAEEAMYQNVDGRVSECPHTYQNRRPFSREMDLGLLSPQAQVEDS
T3 sequence (Q96SW2 whole entry, looked up, change not shown): as the sequence (Q96SW2 whole entry, the tested form may be a part) above

[10] = molecular target: T3, Protein cereblon/Receptor-type tyrosine-protein kinase FLT3; experiment: PROTAC activity at CRBN/FLT3 in human MV4-11 cells harboring FLT3-ITD mutation assessed as induction of FLT3 degradation incubated for 24 hrs by immunoblotting analysis; format: cell-based
[11] = molecular target: E3 ubiquitin-protein ligase Mdm2/Histone deacetylase 1 (Homo sapiens) (UniProt Q00987+Q13547); experiment: PROTAC activity at MDM2/HDAC1 in human HCT-116 cells assessed as induction of HDAC1 degradation at 10 uM by Western blot analysis relative to control; format: cell-based
A549 = experiment: Cytotoxicity against human A549 cells assessed as reduction in cell growth incubated for 5 days by MTT assay; format: functional, cell-based; settings: A549, 120 h
[12] = AUC (0 to t) in ICR mouse at 2 mg/kg, iv; format: ADME, organism-based; settings: in vivo

Structure (SMILES): Cc1ncsc1-c1ccc(CNC(=O)[C@@H]2C[C@@H](O)CN2C(=O)[C@@H](NC(=O)CCCCCCCCCCn2cc(COc3cc4ncnc(Nc5ccc(F)c(Cl)c5)c4cc3NC(=O)/C=C/CN3CCCCC3)nn2)C(C)(C)C)cc1
Emax [1]: 91%

Structure (SMILES): CCCS(=O)(=O)Nc1ccc(F)c(C(=O)c2c[nH]c3ncc(-c4ccc(N5CCN(CC(=O)N[C@H](C(=O)N6C[C@H](O)C[C@H]6C(=O)NCc6ccc(-c7scnc7C)cc6)C(C)(C)C)CC5)cc4)cc23)c1F
IC50 [3]: 6.8 nM

Structure (SMILES): C=C1c2cccc(NCCCCCCNC(=O)CCCn3cc(CCCCNC(=O)c4ccc(C)c(-n5c(C)cc(OCc6ccc(F)cc6F)c(Br)c5=O)c4)nn3)c2C(=O)N1C1CCC(=O)NC1=O (configuration not stated)
DC50 [5]: 18.4 nM
DC50 [6]: 2.9 nM

Structure (SMILES): CC(C)(C)c1cc(NC(=O)Nc2ccc(-c3cn(CCCCc4cn(CCCCC(=O)Nc5cccc6c5CN(C5CCC(=O)NC5=O)C6=O)nn4)c4ncnc(N)c34)cc2)no1 (configuration not stated)
DC50 [9]: 76.7 nM
DC50 [10]: 7.85 µM

Structure (SMILES): COC(C)(C)CCC[C@@](C)(O)[C@H]1CC[C@]2(C)[C@@H]1[C@H](O)C[C@@H]1[C@@]3(C)CC[C@H](OCC(=O)N4CCC(CN5CCN(c6ccc7c(c6)CN(C6CCC(=O)NC6=O)C7=O)CC5)CC4)C(C)(C)[C@@H]3CC[C@]12C (some centres not stated)
Emax [11]: 65.4%
IC50 (A549): 2160 nM

Structure (SMILES): Cc1ccc(C(=O)NCCCc2cn(CCCC(=O)NCCCCCC(=O)N[C@H](C(=O)N3C[C@H](O)C[C@H]3C(=O)N[C@@H](C)c3ccc(-c4scnc4C)cc3)C(C)(C)C)nn2)cc1-n1c(C)cc(OCc2ccc(F)cc2F)c(Br)c1=O
DC50 [5]: 11.6 nM

Continued, values first:

DC50 [2]: 0.35 nM
Structure (SMILES): N#Cc1cccc(-c2ccc(=O)n(Cc3cccc(-c4ncc(OCC5CCN(CC(=O)N6CCN(c7ccc8c(c7)C(=O)N(C7CCC(=O)NC7=O)C8=O)CC6)CC5)cn4)c3)n2)c1 (configuration not stated)

Emax [4]: 61.2%
Structure (SMILES): O=C1CCC(N2C(=O)c3cccc(NC(=O)CCCCCCCn4cc(COc5c(O)cc(O)c6c(=O)cc(-c7ccccc7)oc56)nn4)c3C2=O)C(=O)N1 (configuration not stated)

IC50 (HeLa): 4.3 µM
Structure (SMILES): CC1(NCc2cn(CCOCCOCCOCCOCCNc3cccc4c3C(=O)N(C3CCC(=O)NC3=O)C4=O)nn2)CCN(c2cnc(-c3cccc(Cl)c3Cl)c(N)n2)CC1 (configuration not stated)

DC50 [7]: 75 nM
Structure (SMILES): CC1(C)C(=O)N(c2ccc(C#N)c(C(F)(F)F)c2)C(=S)N1c1ccc(-c2ccc(O[C@@H]3CCN(C(=O)C4CCN(c5ccc6c(c5)C(=O)N(C5CCC(=O)NC5=O)C6=O)CC4)C3)cc2)cc1 (some centres not stated)

DC50 [2]: 0.77 nM
Emax [8]: > 99%
Structure (SMILES): N#Cc1cccc(-c2ccc(=O)n(Cc3cccc(-c4ncc(OCC5CCN(CC(=O)NCCOCNc6ccc7c(c6)C(=O)N(C6CCC(=O)NC6=O)C7=O)CC5)cn4)c3)n2)c1 (configuration not stated)

DC50 [2]: 0.6 nM
Structure (SMILES): N#Cc1cccc(-c2ccc(=O)n(Cc3cccc(-c4ncc(OCC5CCN(CC(=O)N6CCN(CCNc7ccc8c(c7)C(=O)N(C7CCC(=O)NC7=O)C8=O)CC6)CC5)cn4)c3)n2)c1 (configuration not stated)

AUC(0-t) [12]: 24500 ng·h/mL
Structure (SMILES): NC(=O)c1cccc2cn(-c3ccc(C4CCCN(CCC5CCN(CCC6CCN(c7ccc8c(c7)C(=O)N(C7CCC(=O)NC7=O)C8=O)CC6)CC5)C4)cc3)nc12 (configuration not stated)

From ChEMBL document CHEMBL5584229, “Application and challenges of nitrogen heterocycles in PROTAC linker” (Eur J Med Chem, 2024)
